Data reported in patent US12637428B2, “Isoquinoline derivatives as SIK2 inhibitors” (Cancer Research Technology Limited, priority 2019, dated 2026).

Assays:
Type in all cases: biochemical
SIK2 = target: T1, SIK2 (Homo sapiens, UniProt Q9H0K1); test: SIK2 kinase assay, IMAP fluorescence polarization; settings: 50 or 100 μM ATP, average
T1 construct: purchased Life Technologies
Outline: (§1)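 Dose-response over 0.00005-1 μM compound in 20 mM Tris pH 7.2 containing 4 mM MgCl2, 0.2% BSA and 2 mM DTT, with 50 or 100 μM ATP and 100 nM FAM-labelled peptide. Kinase 0.6-13 nM, 60 min at room temperature; IMAP FP readout, inhibition normalized to no-inhibitor and no-enzyme controls.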

SIK1 = target: T2, SIK1 (Homo sapiens, UniProt P57059); test: SIK1 kinase assay, IMAP fluorescence polarization; settings: 50 or 100 μM ATP, average
T2 construct: purchased Life Technologies
T2 sequence (P57059 whole entry): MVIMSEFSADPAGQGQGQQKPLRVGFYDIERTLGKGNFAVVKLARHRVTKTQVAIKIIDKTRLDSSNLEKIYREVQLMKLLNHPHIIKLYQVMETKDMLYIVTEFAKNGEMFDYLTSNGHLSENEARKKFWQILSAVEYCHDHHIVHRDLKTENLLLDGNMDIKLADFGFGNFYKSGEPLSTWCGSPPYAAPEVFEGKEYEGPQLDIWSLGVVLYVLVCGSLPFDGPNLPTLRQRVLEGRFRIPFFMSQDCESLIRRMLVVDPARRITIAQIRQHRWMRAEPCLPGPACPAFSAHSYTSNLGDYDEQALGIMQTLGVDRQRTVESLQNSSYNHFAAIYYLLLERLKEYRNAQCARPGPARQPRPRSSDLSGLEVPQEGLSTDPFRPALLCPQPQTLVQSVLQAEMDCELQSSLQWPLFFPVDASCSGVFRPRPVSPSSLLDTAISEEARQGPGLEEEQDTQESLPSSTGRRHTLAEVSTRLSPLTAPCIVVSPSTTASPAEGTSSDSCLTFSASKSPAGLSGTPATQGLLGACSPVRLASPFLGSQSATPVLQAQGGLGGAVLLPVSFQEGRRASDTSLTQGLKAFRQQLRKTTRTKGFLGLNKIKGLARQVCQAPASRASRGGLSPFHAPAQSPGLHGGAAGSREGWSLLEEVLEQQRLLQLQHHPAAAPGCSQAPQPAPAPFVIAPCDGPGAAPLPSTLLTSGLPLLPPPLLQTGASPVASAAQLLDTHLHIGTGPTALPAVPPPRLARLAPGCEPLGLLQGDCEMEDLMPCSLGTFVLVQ
Outline: as §1

SIK3 = target: T3, SIK3 (Homo sapiens, UniProt Q9Y2K2); test: SIK3 kinase assay, IMAP fluorescence polarization; settings: 50 or 100 μM ATP, average
T3 construct: purchased Life Technologies
T3 sequence (Q9Y2K2 whole entry): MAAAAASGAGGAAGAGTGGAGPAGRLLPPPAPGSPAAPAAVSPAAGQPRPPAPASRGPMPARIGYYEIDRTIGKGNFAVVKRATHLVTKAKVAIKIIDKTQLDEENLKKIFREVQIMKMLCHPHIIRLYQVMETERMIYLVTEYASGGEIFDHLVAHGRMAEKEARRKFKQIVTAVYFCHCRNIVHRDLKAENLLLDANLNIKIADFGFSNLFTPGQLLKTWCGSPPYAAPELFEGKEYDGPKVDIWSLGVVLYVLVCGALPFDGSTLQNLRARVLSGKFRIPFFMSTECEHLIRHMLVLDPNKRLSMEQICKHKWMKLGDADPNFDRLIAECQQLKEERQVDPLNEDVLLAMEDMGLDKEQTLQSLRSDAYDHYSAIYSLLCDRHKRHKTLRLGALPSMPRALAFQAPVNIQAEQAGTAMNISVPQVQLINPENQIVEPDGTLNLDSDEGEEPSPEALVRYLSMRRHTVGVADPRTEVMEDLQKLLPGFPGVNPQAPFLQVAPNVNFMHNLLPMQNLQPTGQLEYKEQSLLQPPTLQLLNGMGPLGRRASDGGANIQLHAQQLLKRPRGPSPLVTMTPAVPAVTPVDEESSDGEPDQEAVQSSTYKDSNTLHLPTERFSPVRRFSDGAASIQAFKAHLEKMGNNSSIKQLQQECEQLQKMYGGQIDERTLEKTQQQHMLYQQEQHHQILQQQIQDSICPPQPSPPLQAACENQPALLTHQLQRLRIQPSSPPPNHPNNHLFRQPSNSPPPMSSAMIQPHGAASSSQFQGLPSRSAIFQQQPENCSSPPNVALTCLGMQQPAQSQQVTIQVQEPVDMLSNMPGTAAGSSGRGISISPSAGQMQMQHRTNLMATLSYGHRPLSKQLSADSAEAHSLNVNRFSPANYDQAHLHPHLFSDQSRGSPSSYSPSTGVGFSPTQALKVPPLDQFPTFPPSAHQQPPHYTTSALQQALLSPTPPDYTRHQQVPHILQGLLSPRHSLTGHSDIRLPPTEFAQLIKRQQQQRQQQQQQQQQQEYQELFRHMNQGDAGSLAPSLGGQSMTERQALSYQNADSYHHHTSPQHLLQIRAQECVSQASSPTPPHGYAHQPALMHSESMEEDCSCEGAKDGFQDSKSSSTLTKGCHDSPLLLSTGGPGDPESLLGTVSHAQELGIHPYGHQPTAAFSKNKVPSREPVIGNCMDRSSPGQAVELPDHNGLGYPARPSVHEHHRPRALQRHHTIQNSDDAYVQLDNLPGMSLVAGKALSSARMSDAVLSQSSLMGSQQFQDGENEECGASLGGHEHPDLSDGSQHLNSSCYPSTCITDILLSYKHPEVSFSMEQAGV
Outline: as §1

Abl = target: T4, Abl (Homo sapiens, UniProt P00519); test: Abl kinase assay, IMAP fluorescence polarization; settings: 50 or 100 μM ATP, average
T4 construct: purchased Life Technologies
Outline: as §1

Src = target: T5, Src (Homo sapiens, UniProt P12931); test: Src kinase assay, IMAP fluorescence polarization; settings: 50 or 100 μM ATP, average
T5 construct: purchased Life Technologies
T5 sequence (P12931 whole entry): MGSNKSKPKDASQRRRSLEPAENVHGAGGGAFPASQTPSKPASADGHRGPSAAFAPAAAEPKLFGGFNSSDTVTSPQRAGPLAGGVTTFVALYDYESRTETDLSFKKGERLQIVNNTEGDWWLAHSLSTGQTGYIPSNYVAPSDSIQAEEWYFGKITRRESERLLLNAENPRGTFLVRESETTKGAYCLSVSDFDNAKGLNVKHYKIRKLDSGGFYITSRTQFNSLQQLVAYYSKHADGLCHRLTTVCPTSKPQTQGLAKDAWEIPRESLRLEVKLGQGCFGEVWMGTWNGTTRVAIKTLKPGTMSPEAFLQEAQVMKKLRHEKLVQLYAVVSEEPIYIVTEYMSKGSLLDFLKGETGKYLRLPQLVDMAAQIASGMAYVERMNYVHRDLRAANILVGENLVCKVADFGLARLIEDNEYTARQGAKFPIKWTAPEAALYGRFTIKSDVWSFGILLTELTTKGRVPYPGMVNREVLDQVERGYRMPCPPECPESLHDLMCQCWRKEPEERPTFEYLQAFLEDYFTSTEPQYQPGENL
Outline: as §1

EPHA2 = target: T6, EPHA2 (Homo sapiens, UniProt P29317); test: EPHA2 kinase assay, IMAP fluorescence polarization; settings: 50 or 100 μM ATP, Tris pH 8.5, average
T6 construct: purchased Life Technologies
T6 sequence (P29317 24-976): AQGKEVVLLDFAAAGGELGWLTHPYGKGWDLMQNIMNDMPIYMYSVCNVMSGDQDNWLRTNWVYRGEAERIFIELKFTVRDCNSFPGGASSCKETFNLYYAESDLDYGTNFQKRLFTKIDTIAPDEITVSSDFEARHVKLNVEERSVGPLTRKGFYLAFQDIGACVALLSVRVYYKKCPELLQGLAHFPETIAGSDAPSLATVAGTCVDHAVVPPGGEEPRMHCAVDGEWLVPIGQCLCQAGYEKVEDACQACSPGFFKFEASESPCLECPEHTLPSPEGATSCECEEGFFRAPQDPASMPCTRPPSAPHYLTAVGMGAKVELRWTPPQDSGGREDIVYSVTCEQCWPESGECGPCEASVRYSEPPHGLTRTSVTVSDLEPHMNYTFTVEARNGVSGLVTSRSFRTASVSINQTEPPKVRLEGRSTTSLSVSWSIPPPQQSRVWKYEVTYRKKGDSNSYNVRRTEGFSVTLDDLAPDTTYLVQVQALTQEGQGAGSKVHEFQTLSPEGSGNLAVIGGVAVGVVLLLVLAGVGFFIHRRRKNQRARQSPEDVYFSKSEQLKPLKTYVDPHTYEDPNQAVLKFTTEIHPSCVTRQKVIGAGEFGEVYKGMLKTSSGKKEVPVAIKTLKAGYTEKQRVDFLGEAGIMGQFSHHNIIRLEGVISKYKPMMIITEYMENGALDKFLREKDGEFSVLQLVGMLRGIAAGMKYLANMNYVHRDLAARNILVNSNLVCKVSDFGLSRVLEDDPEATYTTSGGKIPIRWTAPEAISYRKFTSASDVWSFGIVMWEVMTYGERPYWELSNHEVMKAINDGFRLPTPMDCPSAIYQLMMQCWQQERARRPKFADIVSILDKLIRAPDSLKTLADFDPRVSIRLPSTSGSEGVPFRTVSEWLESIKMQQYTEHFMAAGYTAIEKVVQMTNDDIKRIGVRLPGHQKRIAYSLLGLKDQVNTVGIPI

T1 sequence (Q9H0K1 whole entry): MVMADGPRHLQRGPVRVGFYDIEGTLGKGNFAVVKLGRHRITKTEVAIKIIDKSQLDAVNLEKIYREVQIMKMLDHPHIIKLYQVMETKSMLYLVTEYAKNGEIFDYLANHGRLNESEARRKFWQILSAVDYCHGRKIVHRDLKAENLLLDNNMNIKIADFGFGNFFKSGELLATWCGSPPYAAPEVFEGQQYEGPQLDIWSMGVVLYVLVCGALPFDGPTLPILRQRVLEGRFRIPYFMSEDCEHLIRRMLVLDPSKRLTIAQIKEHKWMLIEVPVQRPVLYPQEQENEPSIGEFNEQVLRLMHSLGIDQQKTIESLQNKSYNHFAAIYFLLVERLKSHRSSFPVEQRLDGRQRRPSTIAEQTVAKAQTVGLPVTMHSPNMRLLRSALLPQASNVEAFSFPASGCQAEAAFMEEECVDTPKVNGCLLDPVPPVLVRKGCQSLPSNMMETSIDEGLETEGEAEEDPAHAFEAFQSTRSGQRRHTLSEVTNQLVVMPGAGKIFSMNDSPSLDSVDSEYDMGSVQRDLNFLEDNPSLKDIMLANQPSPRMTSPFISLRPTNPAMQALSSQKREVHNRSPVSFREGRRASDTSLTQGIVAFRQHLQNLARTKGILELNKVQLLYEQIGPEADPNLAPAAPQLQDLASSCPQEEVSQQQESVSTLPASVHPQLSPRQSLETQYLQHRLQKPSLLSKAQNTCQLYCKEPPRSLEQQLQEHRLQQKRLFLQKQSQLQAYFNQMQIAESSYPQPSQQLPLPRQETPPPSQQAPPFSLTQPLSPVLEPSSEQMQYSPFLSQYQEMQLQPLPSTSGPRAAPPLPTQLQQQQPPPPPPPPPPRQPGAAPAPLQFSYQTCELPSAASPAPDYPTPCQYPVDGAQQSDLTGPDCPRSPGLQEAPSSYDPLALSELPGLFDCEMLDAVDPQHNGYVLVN

Row | Ki (SIK2) [nM] | Ki (SIK1) [nM] | Ki (SIK3) [nM] | Ki (Abl) [nM] | Ki (Src) [nM] | Ki (EPHA2) [nM] | SMILES
1 | 1.46 | 7.97 | 42.4 | 223 | 798 | > 1000 | Cc1cccc(F)c1-c1cc(N2CCC[C@H](CN(C)C)C2)c2cc(N)ncc2c1 [Example 60, 5-[(3R)-3-[(dimethylamino)methyl]-1-piperidyl]-7-(2-fluoro-6-methyl-phenyl)isoquinolin-3-amine]
2 | 0.316 | 0.55 | 7.35 | 9.38 | 97.8 | > 1000 | CNc1cc2c(N3CCC[C@H](N(C)C)C3)cc(-c3c(C)cccc3F)cc2cn1 [Example 83, 5-[(3S)-3-(dimethylamino)-1-piperidyl]-7-(2-fluoro-6-methyl-phenyl)-N-methyl-isoquinolin-3-amine]
3 | 0.116 | 0.496 | 0.778 | > 1000 | 219 | 175 | Cc1cccc(F)c1-c1cc(NC2CCNCC2)c2ccncc2c1 [Example 49, 7-(2-Fluoro-6-methyl-phenyl)-N-(4-piperidyl)isoquinolin-5-amine]
4 | 5.31 | 53.2 | 130 | 83.7 | 1040 | 1850 | Cc1cccc(F)c1-c1ccc2c(C(=O)NC3CN(C)C3)c(N)ncc2c1 [Example 89, 3-Amino-7-(2-fluoro-6-methyl-phenyl)-N-(1-methylazetidin-3-yl)isoquinoline-4-carboxamide]
5 | 4.37 | 43.4 | 176 | 45.4 | > 1000 | > 1000 | Cc1cccc(F)c1-c1cc(N2CCC(O)CC2)c2cc(N)ncc2c1 [Example 104, 1-[3-Amino-7-(2-fluoro-6-methyl-phenyl)-5-isoquinolyl]piperidin-4-ol]
6 | 0.191 | 0.501 | 1.01 | 3.29 | 24.3 | 144 | Cc1cccc(F)c1-c1cc(NC[C@@H]2CCCN2)c2cc(N)ncc2c1 [Example 13, 7-(2-fluoro-6-methyl-phenyl)-N5-[[(2S)-pyrrolidin-2-yl]methyl]isoquinoline-3,5-diamine]
7 | 0.0693 | 0.296 | 0.51 | 22.5 | 18.7 | 9.22 | Cc1cccc(Cl)c1-c1cc(NC2CCNCC2)c2nc(N)ncc2c1 [Example 137, 6-(2-chloro-6-methyl-phenyl)-N8-(4-piperidyl)quinazoline-2,8-diamine]
8 | 0.968 | 2.6 | 9.52 | 182 | 315 | > 1000 | Cc1cccc(Cl)c1-c1cc(NC2CNC2)c2cc(N)ncc2c1 [Example 31, N5-(azetidin-3-yl)-7-(2-chloro-6-methyl-phenyl)isoquinoline-3,5-diamine]
9 | 0.0488 | 0.287 | 0.171 | 3.75 | 15.9 | 24.6 | Cc1cccc(F)c1-c1cc(N[C@H]2CCCCNC2)c2cc(N)ncc2c1 [Example 23, N5-[(3S)-azepan-3-yl]-7-(2-fluoro-6-methyl-phenyl)isoquinoline-3,5-diamine]
10 | 2.91 | 5.62 | 38.8 | 3.04 | 32.9 | 29.2 | Cc1cccc(F)c1-c1cc(C(=O)NC2CCN(C)C2)c2cc(N)ncc2c1 (stereo not drawn) [Example 99, 3-Amino-7-(2-fluoro-6-methyl-phenyl)-N-(1-methylpyrrolidin-3-yl)isoquinoline-5-carboxamide]
11 | 0.269 | 1.25 | 10.3 | 10.4 | 93.9 | > 1000 | Cc1cccc(F)c1-c1cc(N2CCC[C@H](N(C)C)C2)c2cc(N)ncc2c1 [Example 82, 5-[(3S)-3-(dimethylamino)-1-piperidyl]-7-(2-fluoro-6-methyl-phenyl)isoquinolin-3-amine]
12 | 14.7 | 91.6 | 431 | 124 | > 10000 | > 10000 | CC(=O)N[C@H]1CCN(c2cc(-c3c(C)cccc3F)cc3cnc(N)cc23)C1 [Example 112, N-[(3S)-1-[3-Amino-7-(2-fluoro-6-methyl-phenyl)-5-isoquinolyl]pyrrolidin-3-yl]acetamide]
13 | 0.0911 | 0.611 | 1.62 | 7.38 | 40.2 | 258 | Cc1cccc(F)c1-c1cc(N[C@@H]2CCCN(C)C2)c2cc(N)ncc2c1 [Example 85, 7-(2-fluoro-6-methyl-phenyl)-N5-[(3R)-1-methyl-3-piperidyl]isoquinoline-3,5-diamine]
